Values quoted from earlier work as cited in patent US20250319084A1, “ENDOCRINE THERAPY AND ABEMACICLIB COMBINATION FOR THE ADJUVANT TREATMENT OF NODE-POSITIVE, EARLY STAGE, HORMONE RECEPTOR-POSITIVE, HUMAN EPIDERMAL GROWTH FACTOR RECEPTOR 2-NEGATIVE BREAST CANCER” (Eli Lilly and Company, priority 2017, published 2025).
Like-named read-outs stand apart in the source and are kept apart here.

Tests used:
[1] = system: HR+metastatic breast cancer; details: JPBA Phase 1b, continuously dosed single agent, across dose levels, heavily pretreated HR+ metastatic breast cancer refractory to endocrine therapy
[2] = system: early neoadjuvant breast cancer; details: 150 mg twice daily, as monotherapy and in combination with anastrozole
[3] = system: 46 breast cancer cell lines; details: panel of 46 breast cancer cell lines representing known molecular subgroups
[4] = system: HR+metastatic breast cancer; details: MONARCH 1 Phase 2, single agent, 200-mg dose twice daily, heavily pretreated HR+ metastatic breast cancer refractory to endocrine therapy
[5] = nonclinical species
[6] = system: HR+mBC
[7] = system: human cancer xenografts, including breast cancer; details: multiple murine xenograft models for human cancer
[8] = system: HR+ early breast cancer involving axillary lymph nodes

SMILES | response rate [1] [%] | safety profile [2] | reduction of tumor cell proliferation marker (Ki67 index) ([2]; versus anastrozole alone) | growth inhibition in vitro (sensitivity by subgroup) [3] | response rate [4] [%] | toxicity profile [5] | tolerability ([6]; JPBH Phase 1b, combined with standard endocrine therapies) | most common adverse events ([6]; JPBH, abemaciclib plus endocrine therapy, predominantly low-grade severity, appear dose-dependent) | tumor growth inhibition [7] | 4-year disease-free survival ([8]; BIG 1-98, patients with higher Ki67 values (>11%)) [%] | 4-year disease-free survival ([8]; BIG 1-98, patients with low (≤11%) Ki67 levels at baseline) [%]
CCN1CCN(Cc2ccc(Nc3ncc(F)c(-c4cc(F)c5nc(C)n(C(C)C)c5c4)n3)nc2)CC1 [Abemaciclib, [5-(4-ethyl-piperazin-1-ylmethyl)-pyridin-2-yl]-[5-fluoro-4-(7-fluoro-3-isopropyl-2-methyl-3H-benzoimidazol-5-yl)-pyrimidin-2-yl]-amine] | 33.3 | acceptable safety profile | to a significantly greater extent than anastrozole alone | sensitivity to CDK4 and CDK6 inhibition is greater in ER+breast cancers with luminal histology | 19.7 | acceptable toxicity profile | tolerable | fatigue, nausea, diarrhea, leukopenia, lymphopenia, neutropenia, and anemia | significantly inhibit tumor growth |  | 
N#Cc1ccc(C(c2ccc(C#N)cc2)n2cncn2)cc1 [letrozole] |  |  |  |  |  |  |  |  |  | 85 | 93
